The values below come from US20260022118A1, “HETEROCYCLIC COMPOUNDS AS NRAS INHIBITORS” (Board of Regents, The University of Texas System, priority 2023, published 2026).

In general, pIC50 refers to the negative decadic logarithm of the IC50, by convention in mol/L.

pIC50: −log10 of the molar value. Read-outs that look alike come from different tables or passages of the source. A value given as a limit tells only on which side of the number the result lay.

In the experiment the test system is THP-1 cells expressing G12D (NRAS G12D). Description: Inhibition of NRAS G12D-mediated phosphorylation of ERK (AlphaLISA p-ERK1/2) in THP-1 cells. Type of experiment: cell-based. To be noted: 2 hours incubation, HBSS with 0% or 10% FBS, p-ERK1/2 (Thr202/Tyr204) AlphaLISA, read-out: pERK THP-1 IC50. The procedure: Inhibition of NRAS G12D-Mediated Phosphorylation of ERK by Exemplary Compounds of Formulas I, II, and III.
This Example illustrates that exemplary compounds and salts thereof described herein inhibit the phosphorylation of ERK downstream of NRAS G12D.
THP-1 cells (ATCC TIB-202) expressing G12D were maintained in RPMI-1640 medium supplemented with 10% fetal bovine serum (FBS), 0.05 mM 2-mercaptoethanol, and penicillin/streptomycin. Cells (20,000/well) were seeded onto a 384 well plate in 20 μL of HBSS supplemented with 0% or 10% FBS. Cells were incubated in the absence or presence of various concentrations of test compound (final 1% DMSO) for 2 hours. p-ERK expression was assessed using the AlphaLISA SureFire Ultra p-ERK1/2 (Thr202/Tyr204) (PerkinElmer®, ALSU-PERK-A10K) following manufacturer recommendation. Plates were read on a PerkinElmer® Envision Multimode plate reader. Dose-response curves were analyzed using IC50 regression curve fitting (GeneData Screener). Curves were plotted as a percent control and normalized by high controls without inhibitor (100%), and low controls (0%) containing 1 μM of trametinib, a potent MEK inhibitor.

Consider `C#Cc1c(F)ccc2cc(O)cc(-c3ncc4c(N5C6CNCC5C6)nn(C)c4c3F)c12` [Example 35, 4-[3-(3,6-diazabicyclo[3.1.1]heptan-6-yl)-7-fluoro-1-methyl-pyrazolo[4,3-c]pyridin-6-yl]-5-ethynyl-6-fluoro-naphthalen-2-ol], for which the pIC50 (Homo sapiens, THP-1, 2 h) is 5.33. In the case of `C#Cc1c(F)ccc2cc(O)cc(-c3ncc4c(C5C(=O)C6CCC5CN6)nn(C)c4c3F)c12` (centres unmarked) [Example 41, 5-[6-(8-ethynyl-7-fluoro-3-hydroxy-1-naphthyl)-7-fluoro-1-methyl-pyrazolo[4,3-c]pyridin-3-yl]-2-azabicyclo[2.2.2]octan-6-one], the negative logarithm of the IC50 (pIC50) (Homo sapiens, THP-1, 2 h) was < 5.00. On the same count and under the same terms, for `C#Cc1c(F)ccc2cc(O)cc(-c3ncc4c(N5C[C@@H]6CC[C@H]5CN6)nn(C5CC5)c4n3)c12` [Example 101, 4-(3-((1S,4S)-2,5-diazabicyclo[2.2.2]octan-2-yl)-1-cyclopropyl-1H-pyrazolo[3,4-d]pyrimidin-6-yl)-5-ethynyl-6-fluoronaphthalen-2-ol] the value was < 5.00; for `C#Cc1c(F)ccc2cc(O)cc(-c3nc(C(C)(C)O)c4c([C@H]5[C@@H]6CNC[C@@H]65)nn(C5CC5)c4c3F)c12` [Example 56, 4-[3-(3-azabicyclo[3.1.0]hexan-6-yl)-1-cyclopropyl-7-fluoro-4-(1-hydroxy-1-methyl-ethyl)pyrazolo[4,3-c]pyridin-6-yl]-5-ethynyl-6-fluoro-naphthalen-2-ol], 6.82. As to `C#Cc1c(F)ccc2cc(O)cc(-c3ncc4c([C@H]5[C@@H]6CN[C@@H](C(=O)OC)[C@@H]65)nn(C)c4c3F)c12` (racemic) [Example 47, methyl rac-(2R,6S)-6-[6-(8-ethynyl-7-fluoro-3-hydroxy-1-naphthyl)-7-fluoro-1-methyl-pyrazolo[4,3-c]pyridin-3-yl]-3-azabicyclo[3.1.0]hexane-2-carboxylate], the pIC50 was 6.94. Take `C#Cc1c(F)ccc2cc(O)cc(-c3nc(C)c4c([C@H]5[C@@H]6CNC[C@@H]65)nn(C5CC5)c4c3F)c12` [Example 51, 4-[3-(3-azabicyclo[3.1.0]hexan-6-yl)-1-cyclopropyl-7-fluoro-4-methyl-pyrazolo[4,3-c]pyridin-6-yl]-5-ethynyl-6-fluoro-naphthalen-2-ol]: the negative-log IC50 (pIC50) (Homo sapiens, THP-1, 2 h) is 6.60. On the same count and under the same terms, for `C#Cc1c(F)ccc2cc(O)cc(-c3nc(N(C)C)c4c(N5C[C@H]6CC[C@@H]5CN6)nn(C5CC5)c4c3F)c12` (stereo in doubt) [Example 92, 4-(3-((1R,4R)-2,5-diazabicyclo[2.2.2]octan-2-yl)-1-cyclopropyl-4-(dimethylamino)-7-fluoro-1H-pyrazolo[4,3-c]pyridin-6-yl)-5-ethynyl-6-fluoronaphthalen-2-ol] the value was < 5.00; for `C#Cc1c(F)ccc2cc(O)cc(-c3nc(N(C)CC)c4c([C@H]5[C@@H]6CNC[C@@H]65)nn(C5CC5)c4c3F)c12` [Example 81, 4-(3-((1R,5S,6r)-3-azabicyclo[3.1.0]hexan-6-yl)-1-cyclopropyl-4-(ethyl(methyl)amino)-7-fluoro-1H-pyrazolo[4,3-c]pyridin-6-yl)-5-ethynyl-6-fluoronaphthalen-2-ol], 7.13. With `C#Cc1c(F)ccc2cc(O)cc(-c3ncc4c(N5C[C@@H](C)N[C@@H](C)C5)nn(C)c4c3F)c12` [Example 32, 4-[3-[(3R,5S)-3,5-dimethylpiperazin-1-yl]-7-fluoro-1-methyl-pyrazolo[4,3-c]pyridin-6-yl]-5-ethynyl-6-fluoro-naphthalen-2-ol], where the note is “Homo sapiens, THP-1, 2 h”, the pIC50 is < 4.30. For the molecule `C#Cc1c(F)ccc2cc(O)cc(-c3nc(N4CCC4)c4c([C@H]5[C@@H]6CNC[C@@H]65)nn(C5CC5)c4c3F)c12` [Example 79, 4-(4-(azetidin-1-yl)-3-((1R,5S,6r)-3-azabicyclo[3.1.0]hexan-6-yl)-1-cyclopropyl-7-fluoro-1H-pyrazolo[4,3-c]pyridin-6-yl)-5-ethynyl-6-fluoronaphthalen-2-ol], the negative-log IC50 (pIC50) (Homo sapiens, THP-1, 2 h) was 6.22.

`C#Cc1c(F)ccc2cc(O)cc(-c3nc(C(=C)C)c4c([C@H]5[C@@H]6CNC[C@@H]65)nn(C5CC5)c4c3F)c12` [Example 53, 4-(3-((1R,5S,6r)-3-azabicyclo[3.1.0]hexan-6-yl)-1-cyclopropyl-7-fluoro-4-(prop-1-en-2-yl)-1H-pyrazolo[4,3-c]pyridin-6-yl)-5-ethynyl-6-fluoronaphthalen-2-ol]: the pIC50 (Homo sapiens, THP-1, 2 h) is 8.24.

Take `C#Cc1c(F)ccc2cc(O)cc(-c3ncc4c(C5[C@H]6CNC[C@@H]56)nc(C)n4c3F)c12` (some centres unmarked) [Example 98, 4-[1-(3-azabicyclo[3.1.0]hexan-6-yl)-5-fluoro-3-methyl-imidazo[1,5-a]pyrazin-6-yl]-5-ethynyl-6-fluoro-naphthalen-2-ol]: the pIC50 (Homo sapiens, THP-1, 2 h) is 5.03.

As for `C#Cc1c(F)ccc2cc(O)cc(-c3nc(C4CCC4)c4c([C@H]5[C@@H]6CNC[C@@H]65)nn(C5CC5)c4c3F)c12` [Example 54, 4-[3-(3-azabicyclo[3.1.0]hexan-6-yl)-4-cyclobutyl-1-cyclopropyl-7-fluoro-pyrazolo[4,3-c]pyridin-6-yl]-5-ethynyl-6-fluoro-naphthalen-2-ol], the pIC50 (Homo sapiens, THP-1, 2 h) is 7.79.

On to `C#Cc1c(F)ccc2cc(O)cc(-c3nc(OC4COC4)c4c([C@H]5[C@@H]6CNC[C@@H]65)nn(C5CC5)c4c3F)c12` [Example 71, 4-(3-((1R,5S,6r)-3-azabicyclo[3.1.0]hexan-6-yl)-1-cyclopropyl-7-fluoro-4-(oxetan-3-yloxy)-1H-pyrazolo[4,3-c]pyridin-6-yl)-5-ethynyl-6-fluoronaphthalen-2-ol], for which the pIC50 (Homo sapiens, THP-1, 2 h) is < 5.00. In the case of `C#Cc1c(F)ccc2cc(O)cc(-c3nc(N(C)C)c4c([C@H]5[C@@H]6CNC[C@@H]65)nn(C5CC5)c4c3F)c12` [Example 78, 4-(3-((1R,5S,6r)-3-azabicyclo[3.1.0]hexan-6-yl)-1-cyclopropyl-4-(dimethylamino)-7-fluoro-1H-pyrazolo[4,3-c]pyridin-6-yl)-5-ethynyl-6-fluoronaphthalen-2-ol], the pIC50 (Homo sapiens, THP-1, 2 h) is 7.05.

For `C#Cc1c(F)ccc2cc(O)cc(-c3nc(CCC#N)c4c([C@H]5[C@@H]6CNC[C@@H]65)nn(C5CC5)c4c3F)c12` [Example 50, 3-[3-(3-azabicyclo[3.1.0]hexan-6-yl)-1-cyclopropyl-6-(8-ethynyl-7-fluoro-3-hydroxy-1-naphthyl)-7-fluoro-pyrazolo[4,3-c]pyridin-4-yl]propanenitrile], the pIC50 (Homo sapiens, THP-1, 2 h) is 6.31. Regarding `C#Cc1c(F)ccc2cc(O)cc(-c3nc(C(C)O)c4c([C@H]5[C@@H]6CNC[C@@H]65)nn(C5CC5)c4c3F)c12` (stereo partly drawn) [Example 87, 4-(3-((1R,5S,6r)-3-azabicyclo[3.1.0]hexan-6-yl)-1-cyclopropyl-7-fluoro-4-(1-hydroxyethyl)-1H-pyrazolo[4,3-c]pyridin-6-yl)-5-ethynyl-6-fluoronaphthalen-2-ol], the pIC50 (Homo sapiens, THP-1, 2 h) was 6.95. For `C#Cc1c(F)ccc2cc(O)cc(-c3ncc4c(N5C[C@@H]6CC[C@H]5CN6)c(C)n(C)c4c3F)c12` [Example 107, 4-(3-((1S,4S)-2,5-diazabicyclo[2.2.2]octan-2-yl)-7-fluoro-1,2-dimethyl-1H-pyrrolo[3,2-c]pyridin-6-yl)-5-ethynyl-6-fluoronaphthalen-2-ol], under “Homo sapiens, THP-1, 2 h”, the pIC50 is < 5.00. For `C#Cc1c(F)ccc2cc(O)cc(-c3nc(C(=C)C)c4c(N5C[C@@H]6CC[C@H]5CN6)nn(C5CC5)c4c3F)c12` [Example 89, 4-(3-((1S,4S)-2,5-diazabicyclo[2.2.2]octan-2-yl)-1-cyclopropyl-7-fluoro-4-(prop-1-en-2-yl)-1H-pyrazolo[4,3-c]pyridin-6-yl)-5-ethynyl-6-fluoronaphthalen-2-ol], where the note is “Homo sapiens, THP-1, 2 h”, the pIC50 is 5.43. Take `C#Cc1c(F)ccc2cc(O)cc(-c3ncc4c(C5[C@H]6CNC[C@@H]56)nn5c4c3OCC5)c12` (stereo partly drawn) [Example 94, 4-[3-[(1S,5R)-3-azabicyclo[3.1.0]hexan-6-yl]-9-oxa-1,2,6-triazatricyclo[6.3.1.04,12]dodeca-2,4,6,8(12)-tetraen-7-yl]-5-ethynyl-6-fluoro-naphthalen-2-ol]: the negative-log IC50 (pIC50) (Homo sapiens, THP-1, 2 h) is < 5.00. The same measure, in the same setting: for `C#Cc1c(F)ccc2cc(O)cc(-c3ncc4c(C5CC6CCC5CN6)nn(C)c4c3F)c12` (centres unmarked) [Example 43, 4-[3-(2-azabicyclo[2.2.2]octan-5-yl)-7-fluoro-1-methyl-pyrazolo[4,3-c]pyridin-6-yl]-5-ethynyl-6-fluoro-naphthalen-2-ol] the value was < 5.00; for `C#Cc1c(F)ccc2cc(O)cc(-c3ncc4c([C@H]5[C@@H]6CNC(COC)[C@@H]65)nn(C5CC5)c4c3F)c12` (stereo partly drawn) [Example 99, 4-(1-cyclopropyl-7-fluoro-3-((1S,5R,6S)-2-(methoxymethyl)-3-azabicyclo[3.1.0]hexan-6-yl)-1H-pyrazolo[4,3-c]pyridin-6-yl)-5-ethynyl-6-fluoronaphthalen-2-ol], < 5.00. With `C#Cc1c(F)ccc2cc(O)cc(-c3nc4c5c(nn(C)c5c3F)N3C[C@H]5CC[C@H](N5)[C@H]3CO4)c12` [Example 95, 5-ethynyl-6-fluoro-4-[(4R,7S,8S)-14-fluoro-16-methyl-10-oxa-2,12,16,17,19-pentazapentacyclo[9.6.1.14,7.02,8.015,18]nonadeca-1(17),11(18),12,14-tetraen-13-yl]naphthalen-2-ol], the negative logarithm of the IC50 (pIC50) (Homo sapiens, THP-1, 2 h) was < 5.00.
